From patent US20220324898A1, “PROSTATE SPECIFIC MEMBRANE ANTIGEN (PSMA) LIGANDS COMPRISING AN AMYLASE CLEAVABLE LINKER” (Deutsches Krebsforschungszentrum, priority 2019, published 2022)

How the values were obtained:
LNCaP cells = test: Internalization and cell surface binding of 177Lu-labeled PSMA ligands; assay type: cell-based; details: 30 nM 177Lu-labeled ligand, 45 min, 37° C., blocking with 2-PMPA
Description: 10^5 LNCaP cells were seeded in poly-L-lysine coated 24-well cell culture plates. 24 h later, wells were washed and the cells incubated with a 30 nM solution of ^177Lu radiolabeled PSMA-ligand (PSMA-617 or PSMA-MT) in 250 μL medium, for 45 min at 37° C. In the blocking experiments, incubation was performed in the presence of excess of 2-PMPA to assess competition for PSMA. Following incubation, PSMA-ligand containing medium was removed by washing 3 times with 1 mL of ice-cold PBS. Cells were subsequently incubated twice with 0.5 mL glycine-HCl in PBS (50 mM, pH=2.8) for 5 min to extract the cell membrane associated fraction. The cells were then washed with 1 mL of ice-cold PBS, and lysed with 0.5 mL 0.3 M NaOH. The membrane bound and lysed (internalized) fractions were assessed for radioactivity levels using a gamma counter (Packard Cobra II, GMI, Minn., USA). Cell uptake was calculated as percent of the initially added radioactivity detected in 10^5 cells [% IA/10^5 cells].

[1] = Organ distribution of 177Lu-labeled PSMA ligands in LNCaP tumor-bearing mice; assay type: in vivo, BALB/c nu/nu mice; details: 60 pmol via tail vein, mean, n=3; for Organ distribution: Tumor: LNCaP tumor
Description: 5×10^6 LNCaP cells were subcutaneously inoculated into the right flank of male 6-week-old BALB/c nu/nu mice (Charles River Laboratories). Tumors were grown for ˜3 weeks, to ˜200 mm^3. 60 pmoles of ^177Lu labelled PSMA-ligands were dissolved in 100 μL 0.9% NaCl and injected per mouse. The solution was injected via the tail vein, followed by sacrifice at various time points. Organs of interest (blood, heart, lung, spleen, liver, kidney, muscle, small intestine, brain, tumor, and femur) were dissected, blotted dry, and weighed. The radioactivity was measured using a gamma counter and calculated as % ID/g, and corrected for ^177Lu decay.
The results are given in the following tables (mean+standard deviation; per time point n=3 animals) (see also FIG. 4): […]

prostate cancer = details: cited from earlier work
PSMA = molecular target: T1, PSMA (Homo sapiens, UniProt Q04609); test: Competitive cell binding against 68Ga-labeled PSMA-10 radioligand; details: non-labeled compound vs 0.8 nM 68Ga-PSMA-10; first preliminary experiments; read-out: IC50 (50% inhibitory concentration), competitive cell binding
T1 construct: endogenous in cells
T1 sequence (Q04609 whole entry): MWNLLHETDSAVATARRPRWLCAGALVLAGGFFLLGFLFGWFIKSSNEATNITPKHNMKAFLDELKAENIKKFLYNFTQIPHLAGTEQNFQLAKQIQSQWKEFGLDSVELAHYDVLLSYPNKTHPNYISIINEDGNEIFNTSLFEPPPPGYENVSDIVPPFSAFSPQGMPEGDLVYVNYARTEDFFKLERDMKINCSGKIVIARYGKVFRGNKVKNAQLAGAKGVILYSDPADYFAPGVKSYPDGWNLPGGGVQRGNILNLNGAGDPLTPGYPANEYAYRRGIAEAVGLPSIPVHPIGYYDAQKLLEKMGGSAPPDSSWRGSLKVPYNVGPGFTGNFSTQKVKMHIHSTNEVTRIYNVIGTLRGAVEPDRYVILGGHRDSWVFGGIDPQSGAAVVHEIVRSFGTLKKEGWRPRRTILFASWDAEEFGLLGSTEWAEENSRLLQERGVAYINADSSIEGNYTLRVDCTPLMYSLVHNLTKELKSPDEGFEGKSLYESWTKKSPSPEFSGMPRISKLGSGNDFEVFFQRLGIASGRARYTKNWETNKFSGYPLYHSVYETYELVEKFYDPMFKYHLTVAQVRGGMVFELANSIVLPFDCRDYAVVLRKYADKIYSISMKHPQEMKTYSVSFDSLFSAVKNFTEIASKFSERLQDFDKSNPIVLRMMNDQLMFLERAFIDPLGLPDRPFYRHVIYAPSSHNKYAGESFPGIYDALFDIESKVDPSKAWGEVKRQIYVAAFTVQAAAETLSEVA
Description: For the determination of competitive cell binding the cells (10^5 per well) were incubated with a 0.8 nM solution of ^68Ga-labeled radioligand [Glu-urea-Lys(Ahx)]2-HBED-CC (PSMA-10, precursor ordered from ABX, Radeberg, Germany) in the presence of 12 different concentrations of analyte (non-labeled compounds, 0-5000 nM, 100 μL/well). After incubation, the mixture was removed and the wells were washed 3 times with PBS using a multiscreen vacuum manifold (Millipore, Billerica, Mass.). Cell-bound radioactivity was measured using a gamma counter (Packard Cobra II, GMI, Minn., USA). The 50% inhibitory concentration (IC50) values were calculated by fitting the data using a nonlinear regression algorithm (GraphPad Software).

[2] = molecular target: T2, α-amylase (isolated from the human salivary gland) (Homo sapiens, UniProt P0DUB6); test: Cleavability of the linker by α-amylase, monitored by analytical HPLC; assay type: in vitro ADME; details: in vitro, after 177Lu labeling according to example 1A, analytical HPLC at different times
T2 construct: incubated with α-amylase (isolated from the human salivary gland, Sigma-Aldrich); purchased Sigma-Aldrich; host or cells: human salivary gland (natural source)
T2 sequence (P0DUB6 16-511): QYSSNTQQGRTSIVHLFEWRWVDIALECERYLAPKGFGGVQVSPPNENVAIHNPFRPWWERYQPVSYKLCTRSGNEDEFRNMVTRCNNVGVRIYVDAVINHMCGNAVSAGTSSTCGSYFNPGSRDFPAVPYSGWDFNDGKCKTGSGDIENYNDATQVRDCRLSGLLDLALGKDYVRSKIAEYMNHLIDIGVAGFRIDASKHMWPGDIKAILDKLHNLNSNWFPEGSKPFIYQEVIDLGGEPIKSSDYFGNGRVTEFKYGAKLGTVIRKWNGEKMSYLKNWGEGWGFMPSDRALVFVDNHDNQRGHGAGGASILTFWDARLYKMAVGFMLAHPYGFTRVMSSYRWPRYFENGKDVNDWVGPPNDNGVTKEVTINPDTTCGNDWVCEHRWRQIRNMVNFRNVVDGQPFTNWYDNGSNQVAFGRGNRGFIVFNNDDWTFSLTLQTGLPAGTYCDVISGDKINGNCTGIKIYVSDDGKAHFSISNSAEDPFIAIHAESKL
Description: FIG. 1. The time-dependent cleavability of the compound PSMA-MT by α-amylase is shown. ^177Lu-PSMA-MT was incubated with an α-amylase (isolated from the human salivary gland) and enzymatic cleavage was monitored at different times by analytical HPLC.
The radiolabelled compound was incubated with α-amylase (isolated from the human salivary gland, Sigma-Aldrich) according to instructions of the manufacturer and enzymatic cleavage was monitored at different times by analytical HPLC (see FIG. 1).

α-Amylase = molecular target: T3, α-Amylase (Homo sapiens, UniProt P0DUB6); test: α-Amylase digestion of PSMA-MT, analysed by RP-HPLC and MALDI-TOF; assay type: in vitro ADME
T3 sequence (P0DUB6 16-511): T2 sequence (P0DUB6 16-511)
Description: 10 μl of a solution of PSMA-MT in ultrapure water with a concentration of 1 mM were analyzed by analytic RP-HPLC and MALDI-TOF before the digestion. For digestion 10 μl of α-Amylase (1 U/μl in H2O ) were added to 10 μl of a solution of PSMA-MT in ultrapure water with a concentration of 1 mM and incubated at RT for 1 h. The solution was afterwards analyzed with analytic RP-HPLC and MALDI-TOF to evaluate the reaction.
To investigate the exact digest position of PSMA-MT the different fragments found in the MALDI-TOF after the digest were compared. Two main peaks occurred at 902 g/mol and at 989 g/mol. […] Fragments corresponding to cleavage at cleavage site B could not be detected in the MALDI-TOF.

SMILES	Specifically cell surface bound (cell uptake), mean (LNCaP cells)	Specifically internalized (cell uptake), mean (LNCaP cells)	Organ distribution: Blood ([1]; 1 h) [% ID/g]	Organ distribution: Brain ([1]; 1 h) [% ID/g]	Organ distribution: Heart ([1]; 1 h) [% ID/g]	Organ distribution: Kidney (first Kidney column) ([1]; 1 h) [% ID/g]	Organ distribution: Kidney (second Kidney column) ([1]; 1 h) [% ID/g]	Organ distribution: Liver ([1]; 1 h) [% ID/g]	Organ distribution: Lung ([1]; 1 h) [% ID/g]	Organ distribution: Muscle ([1]; 1 h) [% ID/g]	Organ distribution: Small Intestine ([1]; 1 h) [% ID/g]	Organ distribution: Spleen ([1]; 1 h) [% ID/g]	Organ distribution: Tail ([1]; 1 h) [% ID/g]	Organ distribution: Tumor ([1]; 1 h) [% ID/g]	Organ distribution: Blood ([1]; 4 h) [% ID/g]	Organ distribution: Brain ([1]; 4 h) [% ID/g]	Organ distribution: Heart ([1]; 4 h) [% ID/g]	Organ distribution: Kidney (first Kidney column) ([1]; 4 h) [% ID/g]	Organ distribution: Kidney (second Kidney column) ([1]; 4 h) [% ID/g]	Organ distribution: Liver ([1]; 4 h) [% ID/g]	also measured
O=C([O-])CN1CCN(CC(=O)[O-])CCN(CC(=O)NCC2CCC(C(=O)N[C@@H](Cc3ccc4ccccc4c3)C(=O)NCCCC[C@H](NC(=O)N[C@@H](CCC(=O)O)C(=O)O)C(=O)O)CC2)CCN(CC(=O)[O-])CC1.[177Lu+3] (some centres unmarked) [177Lu-PSMA-617, reference compound]	4,09228993 % IA/10^5 cells	2,63598315 % IA/10^5 cells	0.31	0.02	0.17	143.55	146.77	4.73	0.61	0.07	0.18	5.86	3.46	19.20	0.03	0.01	0.03	5.52	5.50	1.57	Organ distribution: Lung ([1]; 4 h): 0.08 % ID/g; Organ distribution: Muscle ([1]; 4 h): 0.01 % ID/g; Organ distribution: Small Intestine ([1]; 4 h): 0.04 % ID/g; Organ distribution: Spleen ([1]; 4 h): 1.20 % ID/g; Organ distribution: Tail ([1]; 4 h): 0.78 % ID/g; Organ distribution: Tumor ([1]; 4 h): 14.77 % ID/g
O=C([O-])CN1CCN(CC(=O)[O-])CCN(CC(=O)N2CCN(c3cccc(C4OCC5OC(OC6C(CO)OC(OC7C(CO)OC(Oc8ccc(CCC(=O)NCC9CCC(C(=O)NC(Cc%10ccc%11ccccc%11c%10)C(=O)NCCCCC(NC(=O)NC(CCC(=O)O)C(=O)O)C(=O)O)CC9)cc8)C(O)C7O)C(O)C6O)C(O)C(O)C5O4)c3)CC2)CCN(CC(=O)[O-])CC1.[177Lu+3] (centres unmarked) [177Lu-PSMA-MT]	4,86794251 % IA/10^5 cells	2,14459836 % IA/10^5 cells	0.35	0.02	0.16	144.27	142.04	2.07	0.56	0.08	0.15	3.83	4.61	12.83	0.04	0.01	0.04	20.59	19.45	4.58	Organ distribution: Lung ([1]; 4 h): 0.10 % ID/g; Organ distribution: Muscle ([1]; 4 h): 0.02 % ID/g; Organ distribution: Small Intestine ([1]; 4 h): 0.04 % ID/g; Organ distribution: Spleen ([1]; 4 h): 3.94 % ID/g; Organ distribution: Tail ([1]; 4 h): 0.50 % ID/g; Organ distribution: Tumor ([1]; 4 h): 9.18 % ID/g
O=C([O-])CC[C@H](NC(=O)N[C@@H](CCCCNC(=O)[C@H](Cc1ccc2ccccc2c1)NC(=O)C1CCC(CNC(=O)CN2CCN(CC(=O)[O-])CCN(CC(=O)[O-])CCN(CC(=O)[O-])CC2)CC1)C(=O)[O-])C(=O)[O-].[225Ac].[H+].[H+].[H+] (some centres unmarked) [225Ac-PSMA-617]																					PSA value (prostate cancer; both patients): below the detectability limit; Clinical response (prostate cancer; two patients with extremely advanced and end-stage disease): complete remission
O=C(O)CCC(NC(=O)NC(CCCCNC(=O)C(Cc1ccc2ccccc2c1)NC(=O)C1CCC(CNC(=O)CN2CCN(CC(=O)O)CCN(CC(=O)O)CCN(CC(=O)O)CC2)CC1)C(=O)O)C(=O)O (centres unmarked) [PSMA-617, 2-[3-(1-Carboxy-5-{3-naphthalen-2-yl-2-[(4-{[2-(4,7,10-tris-carboxymethyl-1,4,7,10-tetraaza-cyclododec-1-yl)-acetylamino]-methyl}-cyclohexanecarbonyl) -amino]-propionylamino}-pentyl)-ureido]-pentanedioic acid, reference compound]																					IC50 (PSMA): ~20 nM
O=C(O)CCC(NC(=O)NC(CCCCNC(=O)C(Cc1ccc2ccccc2c1)NC(=O)C1CCC(CNC(=O)CCc2ccc(OC3OC(CO)C(OC4OC(CO)C(OC5OC6COC(c7cccc(N8CCN(C(=O)CN9CCN(CC(=O)O)CCN(CC(=O)O)CCN(CC(=O)O)CC9)CC8)c7)OC6C(O)C5O)C(O)C4O)C(O)C3O)cc2)CC1)C(=O)O)C(=O)O (centres unmarked) [PSMA-MT, 1-(4-(3-oxo-3-PSMA-propyl)phenyl)-4″,6″-(3-(4-DOTA-piperazine)benzylidene)maltotriose]																					IC50 (PSMA): ~39 nM; Basic cleavability of the linker by α-amylases [2]: demonstrated; Turnover of PSMA-MT on digestion with α-Amylase (original mass peak disappeared) (α-Amylase; 1 h at RT, 1 U/μl α-Amylase, 1 mM PSMA-MT, MALDI-TOF): complete turnover; Alpha-amylase cleavage site whose predicted fragments were found (α-Amylase; MALDI-TOF after digest, fragments for cleavage site B could not be detected): cleavage site A
